# Molecular target: T1, recombinant human MetAP2 (Homo sapiens, UniProt P50579)
# T1 construct: made in house; host or cells: Sf9 insect cells
# Experiment: Inhibition of recombinant human MetAP2 activity (MAS substrate, amino acid oxidase/Amplex red fluorescence)
# Format: biochemical
# Settings: manganese enzyme, 0.75 mM MAS substrate, 30 minutes at 25° C., pH 7.5, 1% DMSO; read-out: Activity (IC50 class, MetAP2 inhibition)
# Description: Compounds are tested for their capacity to inhibit recombinant human MetAP2 activity using the following assay.
# Human recombinant MetAP2 expressed in Sf9 cells followed by affinity purification and EDTA treatment to remove endogenous active site cation was dialysed against MnCl2 to produce the manganese enzyme used in the assay. The assay was carried out for 30 minutes at 25° C. in 50 mM HEPES buffer containing 100 mM NaCl, pH 7.5 the presence of 0.75 mM Methionine-Alanine-Serine (MAS) substrate and 50 μg/ml amino acid oxidase using a dilution of purified MetAP2 giving>3-fold signal:noise. Cleavage of the substrate by MetAP2 and oxidation of free methionine by amino acid oxidase was detected and quantified using fluorescence generated by Amplex red (10-acetyl-3,7-dihydroxyphenoxazine) in combination with horseradish peroxidase which detects H2O2 released during the oxidation step. The fluorescent signal was detected using a multiwell fluorimeter. Compounds were diluted in DMSO prior to addition to assay buffer, the final DMSO concentration in the assay being 1%.
# The IC50 is defined as the concentration at which a given compound achieves 50% inhibition of control. IC50 values are calculated using the XLfit software package (version 2.0.5).
# T1 sequence (P50579 whole entry): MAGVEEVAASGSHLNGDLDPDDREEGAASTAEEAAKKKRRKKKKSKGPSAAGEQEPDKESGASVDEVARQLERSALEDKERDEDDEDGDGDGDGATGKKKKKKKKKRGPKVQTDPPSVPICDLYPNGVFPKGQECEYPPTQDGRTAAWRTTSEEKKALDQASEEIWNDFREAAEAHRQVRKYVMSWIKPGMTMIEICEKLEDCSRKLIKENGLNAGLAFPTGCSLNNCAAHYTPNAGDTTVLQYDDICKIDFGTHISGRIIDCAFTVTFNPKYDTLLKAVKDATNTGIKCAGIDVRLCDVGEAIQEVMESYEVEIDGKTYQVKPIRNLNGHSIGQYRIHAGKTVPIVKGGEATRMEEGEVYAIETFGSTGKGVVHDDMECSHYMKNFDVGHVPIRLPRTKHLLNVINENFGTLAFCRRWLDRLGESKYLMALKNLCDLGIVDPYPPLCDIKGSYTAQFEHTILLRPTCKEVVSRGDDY
row,IC50,SMILES
1,50 to 500 nM,"CCN(CC)C/C=C\c1cc(F)ccc1S(=O)(=O)Nc1ccc2c(c1C(=O)O)CC1CCCN21 (centres unmarked) [7-[2-((Z)-3-Diethylaminoprop-1-enyl)-4-fluorobenzenesulfonylamino]-2,3,9,9a-tetrahydro-1H-pyrrolo[1,2-a]indole-8-carboxylic acid]"
2,> 500 nM,"CCN(CC)C/C=C\c1cc(F)ccc1S(=O)(=O)Nc1ccc2c(c1C(=O)O)OC[C@H]1CCN21 [(R)-6-[2-((Z)-3-Diethylaminoprop-1-enyl)-4-fluorobenzenesulfonylamino]-1,2,2a,3-tetrahydro-4-oxa-8b-azacyclobuta[a]naphthalene-5-carboxylic acid]"
3,50 to 500 nM,"CCN(CC)C/C=C\c1cc(F)ccc1S(=O)(=O)Nc1ccc2c(c1C(=O)O)OC[C@H]1CCCN21 [(R)-7-[2-((Z)-3-Diethylaminoprop-1-enyl)-4-fluorobenzenesulfonyl-amino]-2,3,3a,4-tetrahydro-1H-benzo[b]pyrrolo[1,2-d][1,4]oxazine-6-carboxylic acid]"
4,50 to 500 nM,"CCN(CC)C/C=C\c1cc(F)ccc1S(=O)(=O)Nc1ccc2c(c1C(=O)O)OC[C@@H]1CCCN21 [(S)-7-[2-((Z)-3-Diethylaminoprop-1-enyl)-4-fluorobenzenesulfonyl-amino]-2,3,3a,4-tetrahydro-1H-benzo[b]pyrrolo[1,2-d][1,4]oxazine-6-carboxylic acid]"

# Further lines, the molecule ahead of its results:
row,SMILES,IC50
1,"CCN(CC)C/C=C\c1cc(F)ccc1S(=O)(=O)Nc1ccc2c(nc3n2CCC3)c1C(=O)O [6-[2-((Z)-3-Diethylaminoprop-1-enyl)-4-fluorobenzenesulfonylamino]-2,3-dihydro-1H-benzo[d]pyrrolo[1,2-a]imidazole-5-carboxylic acid]",> 500 nM
2,"O=C(O)c1c(NS(=O)(=O)c2ccccc2)ccc2c1cc1n2CCC1 [7-Benzenesulfonylamino-2,3-dihydro-1H-pyrrolo[1,2-a]indole-8-carboxylic acid]",> 500 nM
3,"CCN(CC)C/C=C\c1cc(F)ccc1S(=O)(=O)Nc1ccc2c(c1C(=O)O)CCC1CCCN21 (centres unmarked) [7-[2-((Z)-3-Diethylaminoprop-1-enyl)-4-fluorobenzenesulfonylamino]-1,2,3,3a,4,5-hexahydropyrrolo[1,2-a]quinoline-6-carboxylic acid]",50 to 500 nM
4,"CCN(CC)C/C=C\c1cc(F)ccc1S(=O)(=O)Nc1ccc2c(cc3n2CCC3)c1C(=O)O [7-[2-((Z)-3-Diethylaminoprop-1-enyl)-4-fluorobenzenesulfonylamino]-2,3-dihydro-1H-pyrrolo[1,2-a]indole-8-carboxylic acid]",< 50 nM
